Laboratory results reported in patent US20240115558A1.
Entries after “also recorded” stand apart in the source; their conditions may differ. Where a name gives a salt, the structure may show the parent alone.

Legend:
[1] = tested on: patients with Niemann-Pick disease, type C (NPC); test: 12-month randomized, double-blind, placebo-controlled phase 2/3 trial of arimoclomol in NPC: clinical efficacy endpoints; format: in vivo, human; set-up: key to Change from baseline in 5-domain NPCCSS score, treatment difference / Change in 5-domain NPCCSS score from baseline at 12 months, mean change / Change in 5-domain NPCCSS score, mean change / Change from baseline in 5-domain NPCCSS score, LSMean: 5-domain NPCCSS points (total 0–25, higher = more severe impairment); settings: for Change from baseline in 5-domain NPCCSS score, LSMean / Change from baseline in 5-domain NPCCSS score, treatment difference: patients with ER genotype; for Change in 5-domain NPCCSS score, mean change: 12 months
Description: Patients enrolled in the trial were stratified by use of miglustat at baseline. Patients in both strata were randomized 2:1 to receive arimoclomol or placebo.
Routine clinical care was maintained throughout the trial (including administration of miglustat). Each participant was randomized to receive arimoclomol or placebo three times daily. Arimoclomol (calculated as free base) was administered orally or by feeding tube at 93-372 mg/day based on the patient's body weight up to the estimated equivalence of 372 mg/day for adults (body weight>55 kg) or of 124 mg three times a day.
During the 12-month treatment phase, efficacy assessments for the primary endpoint, the 5-domain NPCCSS score, and for the non-disease specific Clinical Global Impression-Improvement scale (CGI-I) scores were performed at baseline and after 3, 6, 9, and 12 months of treatment; all other efficacy and biomarker assessments were performed at baseline and after 6 and 12 months of treatment.
Primary endpoint: The primary endpoint was change from baseline in NPC severity at 12 months as assessed by the 5-domain NPCCSS score, an abbreviated assessment tool originating from the 17 domain NPCCSS score developed by Yanjanin et al., as described herein. The fully validated 5-domain NPCCSS score comprises the domains determined to be most clinically relevant to patients, caregivers, and clinicians: ambulation, cognition, fine motor skills, speech, and swallowing. The total aggregated 5-domain NPCCSS score ranges from 0 to 25, with a higher score indicating more severe clinical impairment.
Subgroup analyses of primary endpoint: NPC is a heterogeneous disease, and patients aged 2 to 18 years present with a large spectrum of disease presentations. The group of children<4 years old includes patients with mild manifestations and patients with aggressive, early fatal disease. As this group is particularly heterogeneous, a subgroup of patients ≥4 years of age was predefined with the population of study participants.
In the EU, miglustat is indicated for the treatment of progressive neurological manifestations in patients with NPC. However, not all patients are candidates for miglustat treatment, and it is recommended that the benefit of treatment should be evaluated on a regular basis (e.g., every six months). An analysis of the subpopulation of patients receiving miglustat was prespecified to elucidate the effect of arimoclomol in patients on background miglustat treatment. Overall, the subgroups of patients ≥4 years of age, and patients on miglustat treatment, were expected to be more homogeneous with respect to baseline demographics and disease characteristics and therefore more suitable for comparison.
In the first post hoc analysis, subjects with double functional null mutations in NPC1 (NPC1 genotype of Functional Null/Functional Null) were excluded.
In the second post hoc analysis, only subjects with annual severity increment score (ASIS) 0.5-2.0 were included.
In an additional post hoc analysis, only subjects with at least one ER type mutation were included.

[2] = tested on: HSPA1A, the gene encoding HSP70; test: HSPA1A expression in NPC patient fibroblasts treated with arimoclomol; format: cell-based, human; settings: NPC patient fibroblasts I1061T/I1061T; various concentrations; days 2 and 5
Description: The expression level of HSP1A1 is quantified on days 2 and day 5. The data are further described in Example 2.
(§1) Fibroblasts were seeded one day prior to treatment (day −1) with either 400 μM arimoclomol or PBS (control). Cells were treated continuously with arimoclomol from day 0 to day 5, with a media change on day 3, and harvested on day 5. The cells thus experienced 5 days of continued arimoclomol treatment. Cells were subsequently lysed with RIPA buffer containing protease and phosphatase inhibitors. Protein concentration for each sample was quantified with a BCA assay kit.

[3] = tested on: NPC1 protein; test: Total NPC1 protein by western blot in NPC patient fibroblast cell lines; format: cell-based, human; settings: patient fibroblasts with the most common NPC1 mutations; 50-400 μM, five days
Description: The data are further described in Example 2.
as §1

[4] = tested on: NPC1 protein in GM18453 (I1061T/I1061T); test: EndoH-resistant NPC1 by western blot, GM18453 fibroblasts; format: cell-based, human; settings: 400 μM, 5 days
Description: (§2) PNGase cleaves all glycans from the NPC1 protein regardless of maturation status and is included as a control. EndoH sensitive, immature NPC1 is seen in untreated GM18453 extracts. (B) Quantification of the EndoH resistant NPC1, shown as arimoclomol treated relative to untreated cells. Cells were treated for 5 days with 400 μM arimoclomol. Average of three independent experiments, mean±SD. Pairwise t-test (p: *<0.05). The data are further described in Example 2. […]
(§3) Fibroblasts were seeded one day prior to treatment (day −1) with either 400 μM arimoclomol or PBS (control). […] Protein concentration for each sample was quantified with a BCA assay kit. […]
(§4) Proteins were resolved by SDS-PAGE and detected with Western blot (NPC1&tubulin).
(§5) For the quantification of mature and immature forms of NPC1 as shown in FIGS. 5A-B, membranes were imaged and protein bands for the immature (EndoH sensitive) and mature (EndoH resistant) forms of NPC1 (180-250 kDa) and tubulin (50 kDa) were quantified using ImageJ software. […] The fold change of EndoH-resistant NPC1 protein after arimoclomol treatment relative to PBS-treated (untreated) control within each cell line was quantified. […]

[5] = tested on: NPC1 protein in GM18420 (P1007A/IVS23+4delA); test: EndoH-resistant NPC1 by western blot, GM18420 fibroblasts; format: cell-based, human; settings: 400 μM, 5 days
Description: as §2, §3, §4, §5

[6] = evidenced by presence in cerebrospinal fluid of treated ALS patients; cited from earlier work
[7] = tested on: patients with Niemann-Pick disease, type C (NPC); test: Phase 2/3 NPC trial: safety evaluation
Description: Study Procedures: the screening visit (visit 1) included a baseline assessment, randomization assignment, and pharmacokinetic (PK) assessment. The first dose of arimoclomol or placebo was given within 1 week of randomization. Safety assessments were performed at visit 2 (7-14 days after start of treatment) and then every 3 months during the blinded period (visits 3-6).

[O-][n+]1cccc(/C(Cl)=N/OC[C@H](O)CN2CCCCC2)c1 [Arimoclomol, (+)-(R)-N-[2-hydroxy-3-(1-piperidinyl)-propoxy]-pyridine-1-oxide-3-carboximidoyl chloride citrate]
SARA score change from baseline to 12 months, LS mean ([1]; human, in vivo): 1.06 | SARA score change from baseline to 12 months, arimoclomol vs placebo: difference ([1]; human, in vivo): 0.28 | Change in 5-domain NPCCSS score from baseline at 12 months, mean change ([1]; overall population, arimoclomol 93-372 mg/day (free base) t.i.d.): 0.80 | Change from baseline in 5-domain NPCCSS score, LSMean ([1]; month 3): −0.29 | Change from baseline in 5-domain NPCCSS score, treatment difference ([1]; month 3): −1.60 | Change from baseline in 5-domain NPCCSS score, LSMean ([1]; month 6): 0.61 | Change from baseline in 5-domain NPCCSS score, treatment difference ([1]; month 6): −2.19 | Change from baseline in 5-domain NPCCSS score, LSMean ([1]; month 9): 0.86 | Change from baseline in 5-domain NPCCSS score, treatment difference ([1]; month 9): −3.44 | Change from baseline in 5-domain NPCCSS score, LSMean ([1]; month 12): 0.52 | Change from baseline in 5-domain NPCCSS score, treatment difference ([1]; month 12): −4.79 | Change in 5-domain NPCCSS score, mean change ([1]; post hoc: ASIS within 0.5 and 2): 0.19 | Change in 5-domain NPCCSS score, mean change ([1]; post hoc: excluding individuals with double functional null mutations): 0.47 | Expression of HSPA1A relative to PBS-treated control [2]: time- and dose-dependent increase | Amount of total NPC1 protein relative to PBS-treated control [3]: increased | Amount of EndoH-resistant (correctly processed) NPC1 relative to PBS-treated cells [4]: increased | Amount of EndoH-resistant (correctly processed) NPC1 relative to PBS-treated cells ([4]; listed as arimoclomol): increased; also recorded: clear increase of correctly matured NPC1 protein | Amount of EndoH-resistant (correctly processed) NPC1 relative to PBS-treated cells [5]: increased | Blood-brain barrier passage [6]: crosses the blood-brain barrier | Tolerability ([7]; 12-month trial): well tolerated | Patients with increase in serum creatinine level over 1.5 times their baseline values ([7]; arimoclomol group): Six | Patients with serum creatinine levels over twice baseline values ([7]; arimoclomol group): two | Patients with TEAEs ([7]; arimoclomol group, 30/34): 88.2% | Changes in vital signs, electrocardiograms, or other laboratory values during the trial ([7]; in vivo): no significant changes | TEAEs occurring more frequently with arimoclomol versus placebo ([7]; in vivo): Upper respiratory tract infection and decreased weight | Patients with TEAEs that led to trial drug discontinuation ([7]; three patients, four TEAEs (urticaria, angioedema, increased blood creatinine)): 8.8%
